14 compounds from US8211897B2, “Inhibitors of cathepsin B” (ViroBay, Inc., priority 2008, dated 2012) can be followed below.

One experiment addresses T1, Human Liver Cathepsin B (Homo sapiens, UniProt P07858).
T1 construct: from tissue; host or cells: human liver
The experiment is described as follows: Biochemical assay of inhibition of Cathepsin B enzymatic activity. Conditions: 20 uM Boc-Leu-Arg-Arg-AMC, pH 5.5, 15 minutes preincubation, 30 minutes at 25° C. The method, then: The test compound of Formula (I) was dissolved in dimethylsulfoxide (DMSO) and diluted in assay buffer. An 8 point dose response curve was completed in order to evaluate the IC50 value of inhibition of Cathepsin B enzymatic activity (IC50 is defined as the concentration which inhibited 50% of maximal enzyme activity). The assay protocol was adapted from Barrett, 1980. Human Liver Cathepsin B was incubated in assay buffer (50 mM sodium acetate, pH 5.5, 1 mM dithiothreitol (DTT), 2 mM ethylenediaminetetraacetic acid (EDTA) with 20 uM peptide substrate (Boc-Leu-Arg-Arg-AMC) with the compounds diluted from DMSO stocks or DMSO vehicle alone. Final DMSO concentration was retained at 1% in the assay. The test compound was preincubated with the enzyme for 15 minutes at 25° C. Reaction was started with the addition of substrate, and allowed to proceed for 30 minutes at 25° C. Substrate cleavage was monitored with spectrofluorimetric quantitation of methylcoumarylamide (AMC).

Experiment [1] concerns the target T2, Cathepsin B in human cells (HUVECs) (Homo sapiens, UniProt P07858).
T2 construct: endogenous in cells; host or cells: HUVEC (human umbilical vein endothelial cells)
The experiment is described as follows: Cellular activity-based probe (whole-cell enzyme occupancy) assay. Conditions: serum-free media, 4 hours compound treatment, 125I-DMK probe 1 hour. How it is done: Activity of Cathepsin B in cells was measured with the use of an activity-based radioactive probe in a whole-cell enzyme occupancy assay. This method was used to determine the specific potencies of compounds on Cathepsin B in the intracellular environment. The probe used was a peptide diazomethylketone which binds to Cathepsins, including Cathepsin B, potently and irreversibly. This cell-permeable probe binds to active Cathepsin B and binding can be quantified to determine the level of Cathepsin B activity in cells. Cathepsin B enzyme in cells which has bound to an inhibitor is not active and as such not available for binding by the activity-based probe.
The method used was based on a modification of a published method (Falgueyret J-P, et al. 2004. Anal. Biochem. 335:218-227). Human umbilical vein endothelial cells (HUVECs) were grown in 24 well plates in standard growth conditions. […]
To analyze probe-labeled proteins, samples were boiled for 5 minutes and analyzed by SDS-PAGE. […] The band intensities on the autoradiographs were determined. Autoradiographs were scanned using a Microtek ScanMakeri900 scanner and bands quantified with a program such as the BioRad Imaging program QuantityOne or ImageJ. Compound potencies were calculated as a % of the no inhibitor control and IC50 values were extrapolated from the dose-response curves using a suitable program like GraphPad Prism.

Experiment [2] has as its system Liver fibrosis induced in mice by carbon tetrachloride. Kind of experiment: Carbon tetrachloride-induced liver fibrosis model. The experiment is classed as in vivo. Conditions: CCl4 fibrosis, once daily from day 12, 250 mg/kg and 50 mg/kg, terminal day 33. The method, then:
Liver fibrosis was induced in mice by intraperitoneal administration of carbon tetrachloride every 5 days over a 28-day period (days 0-28). On day 11, plasma alanine aminotransferase (ALT) levels and aspertate aminotransferase (AST) were measured from representative mice to confirm liver damage. (2S,4R)-1-((S)-(3-tert-butylureido)-3,3-dimethylbutanoyl]-N-((S)-1-cyclopropylamino)-1,2-dioxohexan-3-yl)-4-(7-methoxy-2-(1H-pyrazol-1-yl)-quinolin-4-yloxy)pyrrolidine-2-carboxamide was administered therapeutically, once daily, starting on day 12, […]. On day 33, terminal plasma AST and ALT, liver hydroxyproline, PK/PD, and histology were assessed.

A word on the IC50: it is the concentration that inhibits the measured activity by half. Low values mean greater potency in that assay, high ones weaker potency in that assay. `CCC[C@H](NC(=O)[C@@H]1C[C@@H](Oc2nccc3cc(OCC)ccc23)CN1C(=O)[C@@H](NC(=O)NC(C)(C)C)C(C)(C)C)C(=O)C(=O)NC1CC1` [Example 12, (2S,4R)-1-((S)-2-(3-tert-Butylureido)-3,3-dimethylbutanoyl)-N-((S)-1-(cyclopropylamino)-1,2-dioxohexan-3-yl)-4-(6-ethoxyisoquinolin-1-yloxy)-pyrrolidine-2-carboxamide] showed an IC50 against Human Liver Cathepsin B of 45 nM. This lies in the double-digit nanomolar range.

In turn, `CCCC[C@H](NC(=O)[C@@H]1CC(Oc2nccc3cc(OC)ccc23)CN1C(=O)[C@@H](NC(=O)NC(C)(C)C)C(C)(C)C)C(=O)C(=O)NC1CC1` (stereo partly shown) [Example 13] registered an IC50 against Human Liver Cathepsin B of 28 nM.

As for `COc1ccc2c(O[C@@H]3C[C@@H](C(=O)N[C@@H](CC4CCC4)C(=O)C(=O)NC4CC4)N(C(=O)[C@@H](NC(=O)NC(C)(C)C)C(C)(C)C)C3)cc(-n3cccn3)nc2c1` [Example 2, (2S,4R)-1-((S)-(3-tert-butylureido)-3,3-dimethylbutanoyl]-N-((S)-1-cyclobutyl-4-(cyclopropylamino)-3,4-dioxobutan-2-yl)-4-(7-methoxy-2-(1H-pyrazol-1-yl)-quinolin-4-yloxy)pyrrolidine-2-carboxamide], the IC50 against Human Liver Cathepsin B was less than 500 nM. The compound also displayed an IC50 in experiment [1] of 19 nM. Also, in experiment [2], the liver hydroxyproline entry was “reduces”, the “plasma ALT” value is on record as “reduces” and the “plasma AST” value is listed as “reduces”.

Compound `CCC[C@H](NC(=O)[C@@H]1CC(Oc2cc(-n3cccn3)nc3cc(OC)ccc23)CN1C(=O)[C@@H](NC(=O)NC(C)(C)C)C(C)(C)C)C(=O)C(=O)NC1CC1` (stereo partly shown) [Example 1] returned an IC50 at Human Liver Cathepsin B of less than 500 nM. Besides, in experiment [1], the IC50 was determined as 24 nM. In experiment [2], the liver hydroxyproline entry was “decreased”, the “plasma ALT” value was “decreased” and the “plasma AST” value is on record as “decreased”.

On to `CCC[C@H](NC(=O)[C@@H]1C[C@@H](Oc2nc(-c3ccccn3)nc3sccc23)CN1C(=O)[C@@H](NC(=O)NC(C)(C)C)C(C)(C)C)C(=O)C(=O)NC1CC1` [Example 16, (2S,4R)-1-((S)-2-(3-tert-butylureido)-3,3-dimethylbutanoyl)-N-((S)-1-(cyclopropylamino)-1,2-dioxohexan-3-yl)-4-(2-(pyridin-2-yl)thieno[2,3-d]pyrimidin-4-yloxy)pyrrolidine-2-carboxamide], for which the concentration for half-maximal inhibition (IC50) on Human Liver Cathepsin B amounted to 45 nM.

As for `CCC[C@H](NC(=O)[C@@H]1C[C@@H](Oc2nc(-c3ccccn3)nc3ccsc23)CN1C(=O)[C@@H](NC(=O)NC(C)(C)C)C(C)(C)C)C(=O)C(=O)NC1CC1` [Example 17, (2S,4R)-1-((S)-2-(3-tert-butylureido)-3,3-dimethylbutanoyl)-N-((S)-1-(cyclopropylamino)-1,2-dioxohexan-3-yl)-4-(2-(pyridin-2-yl)thieno[3,2-d]pyrimidin-4-yloxy)pyrrolidine-2-carboxamide], the IC50 on Human Liver Cathepsin B amounted to 33 nM.

Turning to `CCC[C@H](NC(=O)[C@@H]1C[C@@H](Oc2cc(-n3cccn3)nc3cc(OC)ccc23)CN1C(=O)[C@@H](NC(=O)NCC(C)(C)C)C(C)(C)C)C(=O)C(=O)NC1CC1` [(2S,4R)-N-((S)-1-(cyclopropylamino)-1,2-dioxohexan-3-yl)-1-((S)-3,3-dimethyl-2-(3-neopentylureido)butanoyl)-4-(7-methoxy-2-(1H-pyrazol-1-yl)quinolin-4-yloxy)pyrrolidine-2-carboxamide], the IC50 at Human Liver Cathepsin B came to 61 nM.

Compound `CCOc1ccc2c(O[C@@H]3C[C@@H](C(=O)N[C@@H](CC4CC4)C(=O)C(=O)NC4CC4)N(C(=O)[C@@H](NC(=O)NC(C)(C)C)C(C)(C)C)C3)nccc2c1` [Example 11, (2S,4R)-1-((S)-2-(3-tert-Butylureido)-3,3-dimethylbutanoyl)-N-((S)-1-cyclopropyl-4-(cyclopropylamino)-3,4-dioxobutan-2-yl)-4-(6-ethoxyisoquinolin-1-yloxy)-pyrrolidine-2-carboxamide] showed an IC50 on Human Liver Cathepsin B of 49 nM.

At Human Liver Cathepsin B, `COc1ccc2c(O[C@@H]3C[C@@H](C(=O)N[C@@H](CC4CC4)C(=O)C(=O)NC4CC4)N(C(=O)[C@@H](NC(=O)NC(C)(C)C)C(C)(C)C)C3)nccc2c1` [Example 10, (2S,4R)-1-((S)-2-(3-tert-Butylureido)-3,3-dimethylbutanoyl)-N-((S)-1-cyclopropyl-4-(cyclopropylamino)-3,4-dioxobutan-2-yl)-4-(6-methoxyisoquinolin-1-yloxy)-pyrrolidine-2-carboxamide] yielded a 50% inhibitory concentration (IC50) of 56 nM.

In the case of `CCC[C@H](NC(=O)[C@@H]1CC(Oc2cc(-n3cccn3)nc3cc(OC)ccc23)CN1C(=O)[C@@H](NC(=O)NCC1CC1)C(C)(C)C)C(=O)C(=O)NC1CC1` (stereo partly shown), the IC50 against Human Liver Cathepsin B came out at 83 nM.

Consider `CCC[C@H](NC(=O)[C@@H]1C[C@@H](Oc2nccc3cc(OC)ccc23)CN1C(=O)[C@@H](NC(=O)NC(C)(C)C)C(C)(C)C)C(=O)C(=O)NC1CC1` [Example 9], for which half-maximal inhibition against Human Liver Cathepsin B (IC50) required 27 nM.

`CCC[C@H](NC(=O)[C@@H]1CC(Oc2cc(-c3ccccn3)nc3ccsc23)CN1C(=O)[C@@H](NC(=O)NC(C)(C)C)C(C)(C)C)C(=O)C(=O)NC1CC1` (stereo partly shown) registered an IC50 on Human Liver Cathepsin B of 86 nM.

`CCC[C@H](NC(=O)[C@@H]1C[C@@H](Oc2nc(-c3cc(C)nn3C)nc3ccsc23)CN1C(=O)[C@@H](NC(=O)NC(C)(C)C)C(C)(C)C)C(=O)C(=O)NC1CC1` [Example 18, (2S,4R)-1-((S)-2-(3-tert-butylureido)-3,3-dimethylbutanoyl)-N-((S)-1-(cyclopropylamino)-1,2-dioxohexan-3-yl)-4-(2-(1,3-dimethyl-1H-pyrazol-5-yl)thieno[3,2-d]pyrimidin-4-yloxy)pyrrolidine-2-carboxamide] yielded an IC50 at Human Liver Cathepsin B of 72 nM.

At Human Liver Cathepsin B, `CCC[C@H](NC(=O)[C@@H]1C[C@@H](Oc2nc(C)cc3cc(OC)ccc23)CN1C(=O)[C@@H](NC(=O)NC(C)(C)C)C(C)(C)C)C(=O)C(=O)NC1CC1` [Example 15, (2S,4R)-1-((S)-2-(3-tert-butylureido)-3,3-dimethylbutanoyl)-N-((S)-1-(cyclopropylamino)-1,2-dioxohexan-3-yl)-4-(6-methoxy-3-methylisoquinolin-1-yloxy)pyrrolidine-2-carboxamide] showed a half-maximal inhibitory concentration (IC50) of 32 nM.
